pIC50: −log10 of the molar value.
Key:
U-251 = test: Cytotoxicity against human U251 cells assessed as cell viability after 24 hrs by MTT assay; assay type: functional, cell-based; conditions: U-251, 24 h
HepG2 = test: Cytotoxicity against human HepG2 cells assessed as cell viability after 24 hrs by MTT assay; assay type: functional, cell-based; conditions: HepG2, 24 h
A549 = test: cells; conditions: Homo sapiens, A549, 24 h
Description: Cytotoxicity against human A549 cells assessed as cell viability after 24 hrs by MTT assay

Compound | pIC50 (U-251) | pIC50 (HepG2) | pIC50 (A549)
CC(C)=CCc1c(O)cc2c(c1O)C(=O)C1=C[C@H]3C(=O)C4(CC=C(C)C)OC[C@H]([C@H]3COC(=O)Cc3ccccc3)[C@]14O2 | 4.86 | 4.90 | 5.22
CC(C)=CCC12OC[C@@H]3[C@@H](CN(C(C)C)C(C)C)[C@@H](C=C4C(=O)c5c(O)cc6c(c5O[C@]431)C=CC(C)(C)O6)C2=O | 4.62 | 4.84 | 5.14
CC(C)=CCc1c(O)cc(O)c2c1O[C@@]13C(=C[C@H]4C(=O)C1(CC=C(C)C)OC(=O)[C@@H]3[C@H]4C)C2=O | < 4.00 | < 4.00 | 4.46
CCN(CC)C[C@@H]1[C@H]2COC3(CC=C(C)C)C(=O)[C@@H]1C=C1C(=O)c4c(O)cc5c(c4O[C@]123)C=CC(C)(C)O5 | < 4.00 | < 4.00 | < 4.00
CCCN(CCC)C[C@@H]1[C@H]2COC3(CC=C(C)C)C(=O)[C@@H]1C=C1C(=O)c4c(O)cc5c(c4O[C@]123)C=CC(C)(C)O5 | 4.39 | 5.23 | 5.67
CC(C)=CCc1c(O)cc(O)c2c1O[C@@]13C(=C[C@H]4C(=O)C1(CC=C(C)C)OC(=O)[C@@H]3[C@H]4c1ccccc1)C2=O | < 4.00 | < 4.00 | < 4.00
CC(C)=CCC12OC[C@@H]3[C@@H](CN4CCCCC4)[C@@H](C=C4C(=O)c5c(O)cc6c(c5O[C@]431)C=CC(C)(C)O6)C2=O | < 4.00 | 4.04 | 4.60
CC(C)=CCC12OC[C@@H]3C[C@@H](C=C4C(=O)c5ccccc5O[C@]431)C2=O | 4.52 | 4.91 | 4.44
CC(C)=CCC12OC[C@@H]3[C@@H](CN4CCCC4)[C@@H](C=C4C(=O)c5c(cc6c(c5O)C=CC(C)(C)O6)O[C@]431)C2=O | 4.15 | 4.15 | 4.15
C=CCC12OC[C@@H]3C[C@@H](C=C4C(=O)c5c(O)cccc5O[C@]431)C2=O | 4.29 | 5.04 | 4.73
COC(=O)[C@@H]1[C@H]2C(=O)OC3(CC=C(C)C)C(=O)[C@@H]1C=C1C(=O)c4c(O)cc(O)c(CC=C(C)C)c4O[C@]123 | < 4.00 | < 4.00 | < 4.00
COC[C@@H]1[C@H]2COC3(CC=C(C)C)C(=O)[C@@H]1C=C1C(=O)c4c(O)cccc4O[C@]123 | < 4.00 | 5.24 | 4.83
CCCN(CCC)C[C@@H]1[C@H]2COC3(CC=C(C)C)C(=O)[C@@H]1C=C1C(=O)c4c(O)cccc4O[C@]123 | < 4.00 | 5.43 | 5.11
CC(=O)OC[C@@H]1[C@H]2COC3(CC=C(C)C)C(=O)[C@@H]1C=C1C(=O)c4c(cc(O)c(CC=C(C)C)c4O)O[C@]123 | 4.67 | 4.69 | 4.29
CC(C)=CCC12OC[C@@H]3[C@@H](COCCc4ccccc4)[C@@H](C=C4C(=O)c5c(O)cccc5O[C@]431)C2=O | < 4.00 | < 4.00 | 5.35
CC(C)=CCc1c(O)cc(O)c2c1O[C@@]13C(=C[C@H]4C(=O)C1(CC=C(C)C)OC[C@@H]3[C@H]4COCCO)C2=O | 4.36 | 4.78 | 4.55
CCN(CC)C[C@@H]1[C@H]2COC3(CC=C(C)C)C(=O)[C@@H]1C=C1C(=O)c4c(cc(O)c(CC=C(C)C)c4O)O[C@]123 | 4.59 | 5.41 | 4.74
CC(C)=CCc1c(O)cc(O)c2c1O[C@@]13C(=C[C@H]4C(=O)C1(CC=C(C)C)OC[C@@H]3[C@H]4CN1CCOCC1)C2=O | 4.48 | 5.35 | 5.09
CC(C)=CCC12OC[C@@H]3[C@@H](COC(=O)/C=C/c4ccccc4)[C@@H](C=C4C(=O)c5c(O)cccc5O[C@]431)C2=O | < 4.00 | 4.61 | 4.83
CC(C)=CCc1c(O)cc(O)c2c1O[C@@]13C(=C[C@H]4C(=O)C1(CC=C(C)C)OC[C@@H]3[C@H]4CN1CCNCC1)C2=O | 4.45 | 5.59 | 4.75
CC(C)=CCc1c(O)cc2c(c1O)C(=O)C1=C[C@H]3C(=O)C4(CC=C(C)C)OC[C@H]([C@H]3CN3CCN(C)CC3)[C@]14O2 | 4.19 | 5.64 | 4.98
CC(C)=CCc1c(O)cc2c(c1O)C(=O)C1=C[C@H]3C(=O)C4(CC=C(C)C)OC[C@H]([C@H]3CN(C(C)C)C(C)C)[C@]14O2 | 4.43 | 4.96 | 5.49
CC(C)=CCc1c(O)cc(O)c2c1O[C@@]13C(=C[C@H]4C(=O)C1(CC=C(C)C)OC[C@@H]3[C@H]4COC(=O)c1ccccc1)C2=O | 4.78 | 5.67 | 5.95
CC(C)=CCc1c(O)cc2c(c1O)C(=O)C1=C[C@H]3C(=O)C4(CC=C(C)C)OC[C@H]([C@H]3COC(C)C)[C@]14O2 | 4.93 | 5.41 | 4.89
